“Also recorded” adds a separate entry of the source. Where two headings read alike, the source gives them in different places.
What was measured:
11β-HSD2 Dehydrogenase = molecular target: T1, 11β-HSD2 Dehydrogenase (Ovis aries, UniProt P50168); test: 11β-HSD2 dehydrogenase inhibition, sheep kidney microsomes; format: biochemical; settings: result in words
T1 construct: sheep kidney microsomes; from tissue; host or cells: sheep kidney microsomes
T1 sequence (P50168 1-427): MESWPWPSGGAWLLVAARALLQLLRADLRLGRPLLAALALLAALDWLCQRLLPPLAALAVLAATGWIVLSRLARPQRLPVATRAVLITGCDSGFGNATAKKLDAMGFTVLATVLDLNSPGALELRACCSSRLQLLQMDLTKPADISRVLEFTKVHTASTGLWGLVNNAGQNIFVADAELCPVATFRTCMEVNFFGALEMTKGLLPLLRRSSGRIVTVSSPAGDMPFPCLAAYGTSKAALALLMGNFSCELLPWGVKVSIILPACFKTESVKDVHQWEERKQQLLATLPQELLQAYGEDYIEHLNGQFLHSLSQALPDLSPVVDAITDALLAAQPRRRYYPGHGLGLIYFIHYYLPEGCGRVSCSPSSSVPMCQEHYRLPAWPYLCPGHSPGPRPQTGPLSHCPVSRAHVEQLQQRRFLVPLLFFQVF

11β-HSD1 Reductase [1] = molecular target: T2, 11β-HSD1 Reductase (Rattus norvegicus, UniProt P16232); test: 11β-HSD1 reductase inhibition, testicular Leydig cell homogenates; format: biochemical; settings: result in words
T2 construct: testicular leydig cell homogenates; from tissue; host or cells: testicular Leydig cell homogenates

11β-HSD1 Dehydrogenase = molecular target: T3, 11β-HSD1 Dehydrogenase (Rattus norvegicus, UniProt P16232); test: 11β-HSD1 dehydrogenase inhibition, testicular Leydig cell homogenates; format: biochemical; settings: result in words
T3 construct: testicular leydig cell homogenates; from tissue; host or cells: testicular Leydig cell homogenates

11β-HSD1 Reductase [2] = molecular target: T2, 11β-HSD1 Reductase; test: Backward reaction of 11β-HSD1 reductase in rat Leydig cells; format: cell-based
Protocol: Similar experiments were performed with 3α,5β-deoxycorticosterone and 3α,5β progesterone, neither of which posess an 11β-hydroxy group.

rat aortic rings = test: Contractile response of rat aortic rings to phenylephrine; settings: for amplification of the contractile response to phenylephrine by the steroid: rat aortic rings incubated with the steroid, versus controls
Protocol: Male Sprague-Dawley (150-200 g) rats were anesthetized with pentobarbital (50 mg/kg IP), and a median sternotomy was performed followed by the rapid removal of the thoracic aorta. The adventitia was removed, but the endothelium was left intact. The aorta was cut into 2-3 mm rings and individual rings were placed into a single well of a twenty four well culture plate and incubated at 37° C. under 95% O2-5% CO2. Each well contained 1 mL of DMEM/F12 containing 1% fetal bovine serum, streptomycin (100 μg/ml), penicillin (100 units/ml) and amphotericin (0.25 μg/ml). Aortic rings were incubated for 24 hours prior to contractility measurements with the following combinations of steroids, and antisense/nonsense oligonucleotides (3 μmol/L):
Antisense phosphorothioate oligonucleotides, targeted to block either 11β-HSD2 or 11β-HSD1 gene expression, were obtained from Research Genetics, Huntsville Ala. Antisense oligomers complementary to 20 bp sequences spanning the ribosome binding/translation start site were used. Oligomer sequences were: 5′-CATAACTGCCGTCCAACAGC-3′ (SEQ ID No.: 2) for 11β-HSD1 Antisense and 5′-AGCCCAGCGCTCCATGACTT-3′ (SEQ ID No. 3) for 111-HSD2 antisense. In control experiments the corresponding sense sequence was used as the nonsense oligomer. Antisense and nonsense oligomers were added directly to each well at 20 μg/10:1 sterile H20 per well for a final concentration of 3 μmol/L.
For contraction measurements, aortic rings were suspended by tungsten wires with 1 g of tension and placed in a vessel bath containing serum free DMEM/F12 media at 37° C. aerated with 95% O2-5% CO2, at pH 7.4. Vessels were equilibrated for 20 minutes and then tested with phenylephrine ([…]-10 μmol/L). […] The intensity of contraction was assessed by use of a Narishige micromanipulator and model FT03 force transducer (Grass Instrument Co. West Warwick, R.I.). Measurements were recorded on computer using the Labview 4.1 Virtual Instrument System (National Instruments, Austin, Tex.).

[3] = tested on: 11β-HSD1-reductase activity in rat aortic rings; test: Conversion of 3H-11-dehydrocorticosterone to corticosterone by aortic rings; settings: vascular tissue
Protocol: (ii) ^3H-11-dehydro-corticosterone (10 nmol/L)±11β-HSD1 antisense (3 μmol/L); this experiment was performed in duplicate (n=10 aortic rings per well). Control groups were incubated with the appropriate nonsense oligomer. ^3H-corticosterone in the incubation medium after 24 hrs was then measured. In this experiment, aortic rings were also analyzed for ^3H-corticosterone content. Rings from duplicate incubations (total n=20) were blotted dry, pooled and homogenized in 50% methanol using a Polytron. The homogenates were then centrifuged, extracted as below using Sep-Paks and injected onto a HPLC system for analysis.
Incubation media was collected, ran through a Sep-Pak and eluted with 3 mls of methanol, the eluate was then dried under nitrogen and reconstituted in 500:1 methanol. The aortic rings were dried and weighed. The steroids present in the eluate were separated by high-pressure liquid chromatography with a Dupont Zorbax C8 column eluted at 44° C. at a flow rate of 1 mL/min using 55% methanol for 10 minutes. Steroids were observed by monitoring radioactivity on-line with a Packard Radiomatic Flo-One/Beta Series A-500 counter connected to a Dell Optiflex 425 S/L computer. Corticosterone and 11-dehydro-corticosterone were identified by comparing their retention times with that of known standards.

[4] = whole cell preparations of rat Leydig cells

T3 sequence (P16232 whole entry): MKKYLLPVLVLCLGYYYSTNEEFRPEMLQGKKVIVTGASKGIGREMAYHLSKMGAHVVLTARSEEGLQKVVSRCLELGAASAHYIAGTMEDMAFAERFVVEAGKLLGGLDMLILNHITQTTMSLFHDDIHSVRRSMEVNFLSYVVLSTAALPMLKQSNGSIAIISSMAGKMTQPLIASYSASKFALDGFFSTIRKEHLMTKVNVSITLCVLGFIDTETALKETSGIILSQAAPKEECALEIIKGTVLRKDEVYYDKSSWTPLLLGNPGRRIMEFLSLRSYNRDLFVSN
T2 sequence (P16232 whole entry): as above

C[C@]12CC(=O)[C@H]3[C@@H](CCC4=CC(=O)CC[C@@]43C)[C@@H]1CC[C@@H]2O [11-Keto-testosterone] was tested, and the “11β-HSD2 Dehydrogenase inhibition” value (11β-HSD2 Dehydrogenase) was “No Inhibition”, the “11β-HSD1 Reductase inhibition” value (11β-HSD1 Reductase [1]) was “Selective Inhibitor” and the “11β-HSD1 Dehydrogenase inhibition” value (11β-HSD1 Dehydrogenase) was “No Inhibition”.
CC(=O)[C@H]1CC[C@H]2[C@@H]3CC[C@@H]4C[C@H](O)CC[C@]4(C)[C@H]3CC[C@]12C [3α,5β progesterone, 3α,5β-tetrahydro-progesterone] was tested, and the “11β-HSD1 Dehydrogenase inhibition” value (11β-HSD1 Dehydrogenase) was “potent inhibitors” and the “effect on the backward reaction of 11β-HSD1 reductase” value (11β-HSD1 Reductase [2]) was “Neither of these compounds effected the backward reaction”.
In the case of C[C@]12CC[C@@H](O)C[C@H]1CC[C@@H]1[C@@H]2CC[C@]2(C)[C@@H](C(=O)CO)CC[C@@H]12 [3α,5β-deoxycorticosterone, 3α,5β-terahydro-deoxycorticosterone], the “11β-HSD1 Dehydrogenase inhibition” value (11β-HSD1 Dehydrogenase) was “potent inhibitors” and the “effect on the backward reaction of 11β-HSD1 reductase” value (11β-HSD1 Reductase [2]) was “Neither of these compounds effected the backward reaction”.
With C[C@]12CC[C@@H](O)C[C@@H]1CC[C@@H]1[C@@H]2[C@@H](O)C[C@]2(C)[C@@H](C(=O)CO)CC[C@@H]12 [3α,5α-reduced-corticosterone] the “11β-HSD2 Dehydrogenase inhibition” value (11β-HSD2 Dehydrogenase) was “Potent Inhibitor”, the “11β-HSD1 Reductase inhibition” value (11β-HSD1 Reductase [1]) was “No Inhibition” and the “11β-HSD1 Dehydrogenase inhibition” value (11β-HSD1 Dehydrogenase) was “Potent Inhibitor”. The “increase in NADPH production” value (rat Leydig cells; [4]) was “three to five fold increase”.
For C[C@H](CCC(=O)O)[C@H]1CC[C@H]2[C@@H]3[C@H](O)C[C@@H]4C[C@H](O)CC[C@]4(C)[C@H]3CC[C@]12C [chenodeoxycholic acid], the “11β-HSD2 Dehydrogenase inhibition” value (11β-HSD2 Dehydrogenase) was “No Inhibition”, the “11β-HSD1 Reductase inhibition” value (11β-HSD1 Reductase [1]) was “No Inhibition” and the “11β-HSD1 Dehydrogenase inhibition” value (11β-HSD1 Dehydrogenase) was “potent inhibitors; also recorded: Selective inhibitor”.
For C[C@]12CCC(=O)C[C@@H]1CC[C@@H]1[C@@H]2[C@@H](O)C[C@]2(C)[C@@H](C(=O)CO)CC[C@@H]12 [5α-dihydro-corticosterone], the “11β-HSD2 Dehydrogenase inhibition” value (11β-HSD2 Dehydrogenase) was “Potent Inhibitor”, the “11β-HSD1 Reductase inhibition” value (11β-HSD1 Reductase [1]) was “No inhibition” and the “11β-HSD1 Dehydrogenase inhibition” value (11β-HSD1 Dehydrogenase) was “Potent Inhibitor”.
In the case of C[C@]12C[C@H](O)[C@H]3[C@@H](CCC4=CC(=O)CC[C@@]43C)[C@@H]1CC[C@@H]2C(=O)CO [corticosterone], the “amplification of the contractile response to phenylephrine by the steroid” value (rat aortic rings) was “amplified contractile responses”.
For CC(=O)[C@H]1CC[C@H]2[C@@H]3CCC4=CC(=O)CC[C@]4(C)[C@H]3C(=O)C[C@]12C [11-Keto-progesterone], the “11β-HSD2 Dehydrogenase inhibition” value (11β-HSD2 Dehydrogenase) was “Potent Inhibitor”, the “11β-HSD1 Reductase inhibition” value (11β-HSD1 Reductase [1]) was “Selective Inhibitor” and the “metabolism of 11-dehydro-corticosterone back to corticosterone” value [3] was “decreased”. The “11β-HSD1 Dehydrogenase inhibition” value (11β-HSD1 Dehydrogenase) was “No Inhibition” and the “ability of 11-dehydro-corticosterone to amplify the contractile response to phenylephrine” value (rat aortic rings; rat aortic rings, 24 h, 11-dehydro-corticosterone 100 nmol/L) was “diminished”.
In the case of C[C@]12CC[C@H](O)C[C@@H]1CC[C@H]1[C@@H]3CC[C@H](O)[C@@]3(C)CC(=O)[C@@H]12 [3α,5α-reduced-11-keto-testosterone], the “11β-HSD1 Reductase inhibition” value (11β-HSD1 Reductase [1]) was “Selective Inhibitor” and the “11β-HSD1 Dehydrogenase inhibition” value (11β-HSD1 Dehydrogenase) was “No Inhibition”.
In the case of CC(=O)[C@H]1CC[C@H]2[C@@H]3CCC4=CC(=O)CC[C@]4(C)[C@H]3[C@@H](O)C[C@]12C [11β-OH-progesterone], the “11β-HSD1 Reductase inhibition” value (11β-HSD1 Reductase [1]) was “No Inhibition” and the “11β-HSD1 Dehydrogenase inhibition” value (11β-HSD1 Dehydrogenase) was “Potent Inhibitor (Non-Selective)”.
In the case of C[C@]12CC[C@H](O)C[C@H]1CC[C@@H]1[C@@H]2[C@@H](O)C[C@]2(C)C(=O)CC[C@H]12 [3α,5α-reduced-11β-OH-androstenedione], the “11β-HSD2 Dehydrogenase inhibition” value (11β-HSD2 Dehydrogenase) was “Potent Inhibitor (Non-Selective)”, the “11β-HSD1 Reductase inhibition” value (11β-HSD1 Reductase [1]) was “No Inhibition” and the “11β-HSD1 Dehydrogenase inhibition” value (11β-HSD1 Dehydrogenase) was “Moderate Inhibitor”.
With C[C@]12CC[C@@H](O)C[C@@H]1CC[C@H]1[C@@H]3CC[C@H](C(=O)CO)[C@@]3(C)CC(=O)[C@@H]12 [3α,5α-tetrahydro-11-dehydro-corticosterone] the “11β-HSD2 Dehydrogenase inhibition” value (11β-HSD2 Dehydrogenase) was “Potent Inhibitor”, the “11β-HSD1 Reductase inhibition” value (11β-HSD1 Reductase [1]) was “Potent Inhibitor” and the “11β-HSD1 Dehydrogenase inhibition” value (11β-HSD1 Dehydrogenase) was “No Inhibition”.
With C[C@]12CC(=O)[C@H]3[C@@H](CCC4=CC(=O)CC[C@@]43C)[C@@H]1CC[C@@H]2C(=O)CO [11-dehydro-corticosterone] the “amplification of the contractile response to phenylephrine by the steroid” value (rat aortic rings) was “amplified”.
With C[C@]12CCC(=O)C=C1CC[C@@H]1[C@@H]2C(=O)C[C@]2(C)C(=O)CC[C@@H]12 [11-Keto-androstenedione] the “11β-HSD2 Dehydrogenase inhibition” value (11β-HSD2 Dehydrogenase) was “No Inhibition”, the “11β-HSD1 Reductase inhibition” value (11β-HSD1 Reductase [1]) was “Selective Inhibitor” and the “11β-HSD1 Dehydrogenase inhibition” value (11β-HSD1 Dehydrogenase) was “No Inhibition”.
C[C@]12CC[C@@H](O)C[C@@H]1CC[C@@H]1[C@@H]2C(=O)C[C@]2(C)C(=O)CC[C@@H]12 [3α,5α-reduced-11-keto-androstenedione] was tested, and the “11β-HSD1 Reductase inhibition” value (11β-HSD1 Reductase [1]) was “Selective Inhibitor” and the “11β-HSD1 Dehydrogenase inhibition” value (11β-HSD1 Dehydrogenase) was “No Inhibition”.
For C[C@]12C[C@H](O)[C@H]3[C@@H](CCC4=CC(=O)CC[C@@]43C)[C@@H]1CC[C@@H]2O [11β-OH-testosterone], the “11β-HSD2 Dehydrogenase inhibition” value (11β-HSD2 Dehydrogenase) was “Inhibitor (Non-Selective)”, the “11β-HSD1 Reductase inhibition” value (11β-HSD1 Reductase [1]) was “No Inhibition” and the “11β-HSD1 Dehydrogenase inhibition” value (11β-HSD1 Dehydrogenase) was “Inhibitor (Non-Selective)”.
CC(=O)[C@H]1CC[C@H]2[C@@H]3CC[C@H]4C[C@@H](O)CC[C@]4(C)[C@H]3[C@@H](O)C[C@]12C [3α,5α-reduced-11β-OH-progesterone] was tested, and the “11β-HSD2 Dehydrogenase inhibition” value (11β-HSD2 Dehydrogenase) was “Potent Inhibitor (Non-Selective)”, the “11β-HSD1 Reductase inhibition” value (11β-HSD1 Reductase [1]) was “No Inhibition” and the “11β-HSD1 Dehydrogenase inhibition” value (11β-HSD1 Dehydrogenase) was “Potent Inhibitor (Non-Selective)”. For the same compound, the “increase in NADPH production” value (rat Leydig cells; [4]) was “three to five fold increase”.
For 3α,5α-reduced-11-keto-progesterone, the “11β-HSD1 Reductase inhibition” value (11β-HSD1 Reductase [1]) was “Selective Inhibitor” and the “11β-HSD1 Dehydrogenase inhibition” value (11β-HSD1 Dehydrogenase) was “No Inhibition”.
For C[C@]12CC[C@@H](O)C[C@@H]1CC[C@@H]1[C@@H]2CC[C@]2(C)[C@@H](O)CC[C@@H]12 [3α5α TH-testosterone], the “increase in NADPH production” value (rat Leydig cells) was “three to five fold increase”.
C[C@]12CC[C@@H](O)C[C@@H]1CC[C@@H]1[C@@H]2[C@@H](O)C[C@@]2(C)[C@@H]1CC[C@@H]2O [3α,5α-reduced-11β-OH-testosterone] was tested, and the “11β-HSD2 Dehydrogenase inhibition” value (11β-HSD2 Dehydrogenase) was “Potent Inhibitor (Non-Selective)”, the “11β-HSD1 Reductase inhibition” value (11β-HSD1 Reductase [1]) was “No Inhibition” and the “11β-HSD1 Dehydrogenase inhibition” value (11β-HSD1 Dehydrogenase) was “Potent Inhibitor (Non-Selective)”.
With C[C@@]12CC[C@@H]3[C@H]([C@@H](O)C[C@]4(C=O)[C@@H](C(=O)CO)CC[C@@H]34)[C@@]1(C)CC[C@@H](O)C2 [3α,5α-reduced aldosterone] the “11β-HSD2 Dehydrogenase inhibition” value (11β-HSD2 Dehydrogenase) was “Potent Inhibitor”, the “11β-HSD1 Reductase inhibition” value (11β-HSD1 Reductase [1]) was “No Inhibition” and the “11β-HSD1 Dehydrogenase inhibition” value (11β-HSD1 Dehydrogenase) was “Moderate Inhibitor”.

From patent US20070219172A1, “Selective testicular 11beta-HSD inhibitors for the treatment of hypergonadism associated disorders and modulation of fertility” (The Miriam Hospital, priority 2005, published 2007)
